How the values were obtained:
Format in all cases: in vivo
[1] = system: giant foxtail (Setaria faberii); assay: Test A preemergence
Summary of the method: (§1)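 Pre- and postemergence greenhouse screen. Soil: loam + sand. Spray carrier: solvent mixture, non-phytotoxic, with surfactant. Post timing at 1–2 leaves, height 2–10 cm. Readout: visual injury on a 0–100 scale roughly 10 days after application, untreated plants as reference.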

[2] = system: ragweed (common ragweed, Ambrosia elatior); assay: Test A preemergence
Summary of the method: as §1

[3] = system: Italian ryegrass (Lolium multiflorum); assay: Test A preemergence
Summary of the method: as §1

kochia (Kochia scoparia) [4] = assay: Test A preemergence
Summary of the method: as §1

[5] = system: barnyardgrass (Echinochloa crus-galli); assay: Test A preemergence
Summary of the method: as §1

[6] = system: pigweed (Amaranthus retroflexus); assay: Test A preemergence
Summary of the method: as §1

[7] = system: galium (catchweed bedstraw, Galium aparine); assay: Test A postemergence; details: 0 to 100 scale
Summary of the method: as §1

[8] = system: giant foxtail (Setaria faberii); assay: Test A postemergence; details: 0 to 100 scale
Summary of the method: as §1

[9] = system: ragweed (common ragweed, Ambrosia elatior); assay: Test A postemergence; details: 0 to 100 scale
Summary of the method: as §1

[10] = system: Italian ryegrass (Lolium multiflorum); assay: Test A postemergence; details: 0 to 100 scale
Summary of the method: as §1

kochia (Kochia scoparia) [11] = assay: Test A postemergence; details: 0 to 100 scale
Summary of the method: as §1

[12] = system: barnyardgrass (Echinochloa crus-galli); assay: Test A postemergence; details: 0 to 100 scale
Summary of the method: as §1

corn (Zea mays) = assay: Test A postemergence; details: 0 to 100 scale
Summary of the method: as §1

[13] = system: pigweed (Amaranthus retroflexus); assay: Test A postemergence; details: 0 to 100 scale
Summary of the method: as §1

[14] = system: wheat (Triticum aestivum); assay: Test A postemergence; details: 0 to 100 scale
Summary of the method: as §1

[15] = system: blackgrass (Alopecurus myosuroides); assay: Test A postemergence; details: 0 to 100 scale
Summary of the method: as §1

[16] = system: sedge, umbrella (small-flower umbrella sedge, Cyperus difformis); assay: Test B flooded paddy; details: 250 g ai/ha, Flood, 13 to 15 days, scale 0 (no effect) to 100 (complete control)
Summary of the method: (§2)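 Visual injury ratings against untreated controls, taken 13 to 15 days after compound was added to paddy water standing 3 cm above the soil.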

[17] = system: barnyardgrass (Echinochloa crus-galli); assay: Test B flooded paddy; details: 250 g ai/ha, Flood, 13 to 15 days, scale 0 (no effect) to 100 (complete control)
Summary of the method: as §2

rice (Oryza sativa) = assay: Test B flooded paddy; details: 250 g ai/ha, Flood, 13 to 15 days, scale 0 (no effect) to 100 (complete control)
Summary of the method: as §2

[18] = system: ducksalad (Heteranthera limosa); assay: Test B flooded paddy; details: 250 g ai/ha, Flood, 13 to 15 days, scale 0 (no effect) to 100 (complete control)
Summary of the method: as §2

FC(F)(F)c1cnc(Oc2c(Br)cccc2Oc2ncc(Cl)cn2)nc1 [Compound 24]
80: Plant response rating, Ryegrass, Italian ([3]; 1000 g ai/ha, 0 to 100 scale) | Plant response rating, Ryegrass, Italian ([10]; 1000 g ai/ha)
100: Plant response rating, Foxtail, Giant ([1]; 1000 g ai/ha, 0 to 100 scale) | Plant response rating, Barnyardgrass ([5]; 1000 g ai/ha, 0 to 100 scale) | Plant response rating, Pigweed ([6]; 1000 g ai/ha, 0 to 100 scale) | Plant response rating, Pigweed ([13]; 1000 g ai/ha) | Plant response rating, Sedge, Umbrella [16] | Plant response rating, Ducksalad [18]
60: Plant response rating, Ragweed ([9]; 1000 g ai/ha)
70: Plant response rating, Ragweed ([2]; 1000 g ai/ha, 0 to 100 scale) | Plant response rating, Blackgrass ([15]; 1000 g ai/ha)
90: Plant response rating, Kochia (kochia (Kochia scoparia) [4]; 1000 g ai/ha, 0 to 100 scale) | Plant response rating, Galium ([7]; 1000 g ai/ha) | Plant response rating, Foxtail, Giant ([8]; 1000 g ai/ha) | Plant response rating, Kochia (kochia (Kochia scoparia) [11]; 1000 g ai/ha) | Plant response rating, Barnyardgrass ([12]; 1000 g ai/ha, 0 no effect, 100 complete control) | Plant response rating, Rice (rice (Oryza sativa))
50: Plant response rating, Corn (corn (Zea mays); 1000 g ai/ha) | Plant response rating, Wheat ([14]; 1000 g ai/ha) | Plant response rating, Barnyardgrass [17]

FC(F)c1cccc(Oc2ncc(Br)cn2)c1Oc1ncc(Cl)cn1 [Compound 41]
30%: pest or weed control at 125 g/ha ([3]; Lolium multiflorum, pre-emergence, 240 h, 125 g ai/ha, 0 to 100 scale (0 no effect, 100 complete control), read-out: Ryegrass, Italian plant response rating) | pest or weed control at 31 g/ha ([8]; Setaria faberi, post-emergence, 240 h, 31 g ai/ha, read-out: Plant response rating, Foxtail, Giant) | pest or weed control at 31 g/ha ([9]; Ambrosia artemisiifolia, post-emergence, 240 h, 31 g ai/ha, read-out: Plant response rating, Ragweed) | pest or weed control at 31 g/ha ([10]; Lolium multiflorum, post-emergence, 240 h, 31 g ai/ha, read-out: Plant response rating, Ryegrass, Italian) | pest or weed control at 250 g/ha ([18]; Heteranthera limosa, 336 h, read-out: Plant response rating, Ducksalad)
90%: pest or weed control at 125 g/ha ([8]; Setaria faberi, post-emergence, 240 h, 125 g ai/ha, read-out: Plant response rating, Foxtail, Giant) | pest or weed control at 125 g/ha (kochia (Kochia scoparia) [11]; Bassia scoparia, post-emergence, 240 h, 125 g ai/ha, read-out: Plant response rating, Kochia)
40%: pest or weed control at 31 g/ha ([12]; Echinochloa crus-galli, post-emergence, 240 h, 31 g ai/ha, read-out: Plant response rating, Barnyardgrass) | pest or weed control at 31 g/ha ([15]; Alopecurus myosuroides, post-emergence, 240 h, 31 g ai/ha, read-out: Plant response rating, Blackgrass) | pest or weed control at 250 g/ha ([16]; Cyperus difformis, 336 h, read-out: Plant response rating, Sedge, Umbrella)
10%: Corn plant response rating (crop injury, 0 = no effect, 100 = complete kill) at 31 g/ha (corn (Zea mays); Zea mays, post-emergence, 240 h, 31 g ai/ha)
80%: pest or weed control at 125 g/ha ([5]; Echinochloa crus-galli, pre-emergence, 240 h, 125 g ai/ha, 0 to 100 scale (0 no effect, 100 complete control), read-out: Barnyardgrass plant response rating) | pest or weed control at 125 g/ha ([7]; Galium, post-emergence, 240 h, 125 g ai/ha, read-out: Plant response rating, Galium) | pest or weed control at 125 g/ha ([12]; Echinochloa crus-galli, post-emergence, 240 h, 125 g ai/ha, read-out: Plant response rating, Barnyardgrass) | pest or weed control at 125 g/ha ([15]; Alopecurus myosuroides, post-emergence, 240 h, 125 g ai/ha, read-out: Plant response rating, Blackgrass)
0%: pest or weed control at 31 g/ha ([2]; Ambrosia artemisiifolia, pre-emergence, 240 h, 31 g ai/ha, 0 to 100 scale (0 no effect, 100 complete control), read-out: Ragweed plant response rating) | pest or weed control at 31 g/ha ([3]; Lolium multiflorum, pre-emergence, 240 h, 31 g ai/ha, 0 to 100 scale (0 no effect, 100 complete control), read-out: Ryegrass, Italian plant response rating) | plant injury at 31 g/ha ([14]; Triticum aestivum, post-emergence, 240 h, 31 g ai/ha, read-out: Plant response rating, Wheat) | pest or weed control at 250 g/ha ([17]; Echinochloa crus-galli, 336 h, read-out: Plant response rating, Barnyardgrass) | plant injury at 250 g/ha (rice (Oryza sativa); Oryza sativa, 336 h, read-out: Plant response rating, Rice)
50%: pest or weed control at 125 g/ha ([9]; Ambrosia artemisiifolia, post-emergence, 240 h, 125 g ai/ha, read-out: Plant response rating, Ragweed) | pest or weed control at 31 g/ha (kochia (Kochia scoparia) [11]; Bassia scoparia, post-emergence, 240 h, 31 g ai/ha, read-out: Plant response rating, Kochia) | Corn plant response rating (crop injury, 0 = no effect, 100 = complete kill) at 125 g/ha (corn (Zea mays); Zea mays, post-emergence, 240 h, 125 g ai/ha)
60%: pest or weed control at 125 g/ha ([2]; Ambrosia artemisiifolia, pre-emergence, 240 h, 125 g ai/ha, 0 to 100 scale (0 no effect, 100 complete control), read-out: Ragweed plant response rating) | pest or weed control at 31 g/ha ([7]; Galium, post-emergence, 240 h, 31 g ai/ha, read-out: Plant response rating, Galium) | pest or weed control at 125 g/ha ([10]; Lolium multiflorum, post-emergence, 240 h, 125 g ai/ha, read-out: Plant response rating, Ryegrass, Italian)
20%: pest or weed control at 31 g/ha ([5]; Echinochloa crus-galli, pre-emergence, 240 h, 31 g ai/ha, 0 to 100 scale (0 no effect, 100 complete control), read-out: Barnyardgrass plant response rating) | plant injury at 125 g/ha ([14]; Triticum aestivum, post-emergence, 240 h, 125 g ai/ha, read-out: Plant response rating, Wheat)
70%: pest or weed control at 31 g/ha (kochia (Kochia scoparia) [4]; Bassia scoparia, pre-emergence, 240 h, 31 g ai/ha, 0 to 100 scale (0 no effect, 100 complete control), read-out: Kochia plant response rating)
100%: pest or weed control at 31 g/ha ([1]; Setaria faberi, pre-emergence, 240 h, 31 g ai/ha, 0 to 100 scale (0 no effect, 100 complete control), read-out: Foxtail, Giant plant response rating) | pest or weed control at 125 g/ha ([1]; Setaria faberi, pre-emergence, 240 h, 125 g ai/ha, 0 to 100 scale (0 no effect, 100 complete control), read-out: Foxtail, Giant plant response rating) | pest or weed control at 125 g/ha (kochia (Kochia scoparia) [4]; Bassia scoparia, pre-emergence, 240 h, 125 g ai/ha, 0 to 100 scale (0 no effect, 100 complete control), read-out: Kochia plant response rating) | pest or weed control at 31 g/ha ([6]; Amaranthus retroflexus, pre-emergence, 240 h, 31 g ai/ha, 0 to 100 scale (0 no effect, 100 complete control), read-out: Pigweed plant response rating) | pest or weed control at 125 g/ha ([6]; Amaranthus retroflexus, pre-emergence, 240 h, 125 g ai/ha, 0 to 100 scale (0 no effect, 100 complete control), read-out: Pigweed plant response rating) | pest or weed control at 31 g/ha ([13]; Amaranthus retroflexus, post-emergence, 240 h, 31 g ai/ha, read-out: Plant response rating, Pigweed) | pest or weed control at 125 g/ha ([13]; Amaranthus retroflexus, post-emergence, 240 h, 125 g ai/ha, read-out: Plant response rating, Pigweed)

From patent US20170190671A1, “BIS(ARYL)CATECHOL DERIVATIVES AS HERBICIDES” (E I DU PONT DE NEMOURS AND COMPANY, priority 2014, published 2017)
